Data published in patent US20160213007A1, “Methods and Compositions to Elicit Resistance to Fungal Disease in Plants and Plant Parts” (ECOFLORA AGRO S.A.S., priority 2013, published 2016).

Test system: Botrytis cinerea
Test: Growth inhibition of Botrytis cinerea by acetophenones

O=C(CO)c1ccccc1 [2-hydroxy acetophenone]
inhibition of the growth of the fungus Botrytis cinerea: can inhibit the growth
